The record followed here is US20170304388A1, “NEW INDICATION OF CARDIOVASCULAR DRUGS FOR PREPARATION OF CANCER INHIBITION PHARMACEUTICAL COMPOSITION” (LAUNX BIOMEDICAL CO., LTD., priority 2014, published 2017).

In this experiment the test system is cancer cell lines. The experiment can be described thus: Growth inhibitory effects on the panel of cancer cell lines. Type of experiment: cell-based. Conditions: drug 10 μM, 72 hours, WST-1. On the technique in general: Tetrazolium dyes change colour on reduction, which living cells bring about.

Structures can show the parent of a compound that is named as a salt.

From the text: Subculture the different types of cancer cells.
For cell viability analysis, the cardiovascular drugs include peripheral vasodilator reaming enhancer, angiotensin converting agent inhibitor, hypotension and shock therapeutic agent, diuretic, antiarrhythmic agent, antiarralciton drug, antihypertensive agent, anticoagulant thrombolytic agent, cardiac tonic, intravenous (hemorrhoids) therapeutic agent, are used to test the inhibition effect of cancer cell.

Consider `CCOC(=O)[C@H](CCc1ccccc1)N[C@H]1CCCN2CCC[C@@H](C(=O)O)N2C1=O` [Cilazapril monohydrate (Inhibace), Cilazapril monohydrate], for which the “inhibition effect on different cancer cell lines (in words)” value is reported as “significant inhibition effect”.

As to `N=C(N)NC(=O)c1nc(Cl)c(N)nc1N` [Amiloride hydrochloride dihydrate], the “inhibition effect on different cancer cell lines (in words)” value is reported as “significant inhibition effect”. With `COc1ccccc1OCCNCC(O)COc1cccc2[nH]c3ccccc3c12` (stereo not drawn) [Carvedilol], the “inhibition effect on different cancer cell lines (in words)” value is “significant inhibition effect”. As to `COCCc1ccc(OCC(O)CNC(C)C)cc1` (stereo not drawn) [toprolol tartrate], the “inhibition effect on different cancer cell lines (in words)” value is listed as “significant inhibition effect”. With `CN(C)C(=O)Oc1ccc[n+](C)c1` [Pyridostigmine Bromide (Mestinon), Pyridostigmine Bromide], the “inhibition effect on different cancer cell lines (in words)” value is on record as “significant inhibition effect”.

As to `CNCC(=O)c1ccc(O)c(O)c1` [Adrenalone HCl], the “inhibition effect on different cancer cell lines (in words)” value is “significant inhibition effect”.

`O=C(O[C@H]1C[C@H]2CC[C@@H](C1)[N+]21CCCC1)C(O)(c1ccccc1)c1ccccc1` [Trospium chloride (Sanctura), Trospium chloride]: the “inhibition effect on different cancer cell lines (in words)” value is given as “significant inhibition effect”. Turning to `Cc1cccc(C)c1OCC(C)N` (stereo not drawn) [Mexiletine HCl], the “inhibition effect on different cancer cell lines (in words)” value is “significant inhibition effect”.

For the molecule `Cc1onc(-c2ccccc2Cl)c1C(=O)N[C@@H]1C(=O)N2[C@@H]1SC(C)(C)[C@@H]2C(=O)O` [Cloxacillin sodium (Cloxacap), Cloxacillin sodium], the “inhibition effect on different cancer cell lines (in words)” value was “significant inhibition effect”. Turning to `COC(=O)[C@H](c1ccccc1Cl)N1CCc2sccc2C1` [Clopidogrel (Plavix), Clopidogrel], the “inhibition effect on different cancer cell lines (in words)” value is recorded as “significant inhibition effect”. Take `Nc1ccn([C@@H]2O[C@H](CO)[C@@H](O)[C@H]2O)c(=O)n1` [Cytidine]: the “inhibition effect on different cancer cell lines (in words)” value is recorded as “significant inhibition effect”. `CCOc1nc2cccc(C(=O)OC(C)OC(=O)OC3CCCCC3)c2n1Cc1ccc(-c2ccccc2-c2nnn[nH]2)cc1` (stereo not drawn) [Candesartan cilexetil (Atacand), Candesartan cilexetil]: the “inhibition effect on different cancer cell lines (in words)” value is “significant inhibition effect”.

As for `Cc1nc2c([nH]1)-c1ccccc1N(C(=O)c1ccc(NC(=O)c3ccccc3-c3ccccc3)cc1)CC2` [Conivaptan HCl (Vaprisol), Conivaptan HCl], the “inhibition effect on different cancer cell lines (in words)” value is “significant inhibition effect”. In the case of `COC(=O)CCc1ccc(OCC(O)CNC(C)C)cc1` (stereo not drawn) [Esmolol HCl], the “inhibition effect on different cancer cell lines (in words)” value is given as “significant inhibition effect”.

As for `CC(C)(Sc1cc(C(C)(C)C)c(O)c(C(C)(C)C)c1)Sc1cc(C(C)(C)C)c(O)c(C(C)(C)C)c1` [Probucol], the “inhibition effect on different cancer cell lines (in words)” value is reported as “significant inhibition effect”. `O=C1CCc2cc(OCCCCc3nnnn3C3CCCCC3)ccc2N1` [Cilostazol]: the “inhibition effect on different cancer cell lines (in words)” value is given as “significant inhibition effect”.

For the molecule `NS(=O)(=O)c1cc2c(cc1Cl)N=C(CSCc1ccccc1)NS2(=O)=O` [Benzthiazide], the “inhibition effect on different cancer cell lines (in words)” value is reported as “significant inhibition effect”. For `CCOC(=O)[C@H](CCc1ccccc1)N[C@@H](C)C(=O)N1CCC[C@H]1C(=O)O` [Enalapril maleate (Vasotec), Enalapril maleate], the “inhibition effect on different cancer cell lines (in words)” value is listed as “significant inhibition effect”. For `NS(=O)(=O)c1cc2c(cc1Cl)NCNS2(=O)=O` [Hydrochlorothiazide], the “inhibition effect on different cancer cell lines (in words)” value is listed as “significant inhibition effect”. Consider `O=c1c(-c2ccc(O)cc2)coc2cc(O)ccc12` [Daidzein], for which the “inhibition effect on different cancer cell lines (in words)” value is listed as “significant inhibition effect”.

Consider `CC(C)NCC(O)c1ccccc1Cl` (stereo not drawn) [Clorprenaline HCL], for which the “inhibition effect on different cancer cell lines (in words)” value was “significant inhibition effect”. Regarding `O=C1c2ccccc2C(=O)C1c1ccccc1` [Phenindione (Rectadione), Phenindione], the “inhibition effect on different cancer cell lines (in words)” value is reported as “significant inhibition effect”. Regarding `COc1cc2nc(N(C)CCCNC(=O)C3CCCO3)nc(N)c2cc1OC` (stereo not drawn) [Alfuzosin hydrochloride (Uroxatral), Alfuzosin hydrochloride], the “inhibition effect on different cancer cell lines (in words)” value is “significant inhibition effect”.

In the case of `CNC[C@H](O)[C@@H](O)[C@H](O)[C@H](O)CO.CNC[C@H](O)[C@@H](O)[C@H](O)[C@H](O)CO.C[C@@H](O[C@H]1OCCN(Cc2nn(P(=O)(O)O)c(=O)[nH]2)[C@H]1c1ccc(F)cc1)c1cc(C(F)(F)F)cc(C(F)(F)F)c1` [Fosaprepitant dimeglumine], the “inhibition effect on different cancer cell lines (in words)” value was “significant inhibition effect”. For `COc1ccc(CN2CCN(C(c3ccc(F)cc3)c3ccc(F)cc3)CC2)c(OC)c1OC` [Lomerizine HCl] the value was “significant inhibition effect”; for `CCCCc1ncc(/C=C(\Cc2cccs2)C(=O)O)n1Cc1ccc(C(=O)O)cc1` [Eprosartan Mesylate], “significant inhibition effect”; for `COc1cc2nc(N3CCN(C(=O)C4COc5ccccc5O4)CC3)nc(N)c2cc1OC` (stereo not drawn) [Doxazosin mesylate], “significant inhibition effect”. In the case of `C=C1CC[C@H](O)C/C1=C/C=C1\CCC[C@]2(C)[C@@H]([C@H](C)CCCC(C)C)CC[C@@H]12` [Vitamin D3 (Cholecalciferol), Cholecalciferol] it was “significant inhibition effect”; in that of `Cc1ccc(N(CC2=NCCN2)c2cccc(O)c2)cc1` [Phentolamine mesilate], “significant inhibition effect”. In the case of `CC1CNc2c(cccc2S(=O)(=O)N[C@@H](CCCNC(=N)N)C(=O)N2CC[C@@H](C)C[C@@H]2C(=O)O)C1` (stereo partly drawn) [Argatroban], the “inhibition effect on different cancer cell lines (in words)” value was “significant inhibition effect”.

For `CNCC(O)c1ccc(O)c(O)c1` (racemic) [DL-Adrenaline], the “inhibition effect on different cancer cell lines (in words)” value is listed as “significant inhibition effect”. In the case of `COc1ccc(C2C(=O)c3ccccc3C2=O)cc1` [Anisindione] it was “significant inhibition effect”; in that of `C[C@@H](CN1CC(=O)NC(=O)C1)N1CC(=O)NC(=O)C1` [Dexrazoxane Hydrochloride], “significant inhibition effect”. For the molecule `CCOC(=O)[C@H](CCc1ccccc1)N[C@@H](C)C(=O)N1C(=O)N(C)C[C@H]1C(=O)O` [Imidapril (Tanatril) HCl, Imidapril HCl], the “inhibition effect on different cancer cell lines (in words)” value is on record as “significant inhibition effect”. For `O=C(O)[C@H](CC(=O)N1C[C@H]2CCCC[C@H]2C1)Cc1ccccc1` [Mitiglinide calcium] the value was “significant inhibition effect”; for `CC(C)NCC(O)COc1cccc2[nH]ccc12` (stereo not drawn) [Pindolol], “significant inhibition effect”; for `C=C(c1ccc(C(=O)O)cc1)c1cc2c(cc1C)C(C)(C)CCC2(C)C` [Bexarotene], “significant inhibition effect”. For `C=CCOc1ccccc1OCC(O)CNC(C)C` (stereo not drawn) [Oxprenolol HCl] the value was “significant inhibition effect”; for `CN(CCOc1ccc(NS(C)(=O)=O)cc1)CCc1ccc(NS(C)(=O)=O)cc1` [Dofetilide (Tikosyn), Dofetilide], “significant inhibition effect”. As for `COC(=O)[C@@H]1CC2=CC(=O)CC[C@]2(C)[C@@]23O[C@@H]2C[C@@]2(C)[C@@H](CC[C@@]24CCC(=O)O4)[C@H]13` [Eplerenone], the “inhibition effect on different cancer cell lines (in words)” value is recorded as “significant inhibition effect”.

As for `C=C[C@H]1C[N@@]2CC[C@H]1C[C@H]2[C@H](O)c1ccnc2ccc(OC)cc12` [Quinine hydrochloride dihydrate], the “inhibition effect on different cancer cell lines (in words)” value is listed as “significant inhibition effect”. As to `O=C1c2c(O)ccc(O)c2C(=O)c2c(NCCNCCO)ccc(NCCNCCO)c21` [Mitoxantrone Hydrochloride], the “inhibition effect on different cancer cell lines (in words)” value is given as “significant inhibition effect”. As to “Almotriptan malate [Almotriptan malate (Axert)]”, the “inhibition effect on different cancer cell lines (in words)” value is listed as “significant inhibition effect”.

Turning to `NS(=O)(=O)c1cc2c(cc1Cl)N=CNS2(=O)=O` [Chlorothiazide], the “inhibition effect on different cancer cell lines (in words)” value is given as “significant inhibition effect”. In the case of `CCNC(=O)CCC/C=C\C[C@@H]1[C@@H](/C=C/[C@@H](O)CCc2ccccc2)[C@H](O)C[C@@H]1O` [Bimatoprost] it was “significant inhibition effect”; in that of `CCC(CC)[C@H](NC(C)=O)[C@@H]1[C@H](O)[C@@H](C(=O)O)C[C@H]1N=C(N)N.O.O.O` [Peramivir Trihydrate], “significant inhibition effect”; in that of `NS(=O)(=O)c1cc2c(cc1C(F)(F)F)NC(Cc1ccccc1)NS2(=O)=O` (stereo not drawn) [Bendroflumethiazide], “significant inhibition effect”. Consider `COc1ccc(OC)c(C(O)C(C)N)c1` (stereo not drawn) [Methoxamine HCl], for which the “inhibition effect on different cancer cell lines (in words)” value was “significant inhibition effect”.

Consider `CC(C)NCC(O)COc1ccc(CCOCC2CC2)cc1` (stereo not drawn) [Betaxolol hydrochloride (Betoptic), Betaxolol hydrochloride], for which the “inhibition effect on different cancer cell lines (in words)” value was “significant inhibition effect”. On to `CCCc1nc(C(C)(C)O)c(C(=O)OCc2oc(=O)oc2C)n1Cc1ccc(-c2ccccc2-c2nnn[nH]2)cc1` [Olmesartan medoxomil (Benicar), Olmesartan medoxomil], for which the “inhibition effect on different cancer cell lines (in words)” value is on record as “significant inhibition effect”. As to `N=C(N)c1ccc2cc(OC(=O)c3ccc(N=C(N)N)cc3)ccc2c1` [Nafamostat mesylate], the “inhibition effect on different cancer cell lines (in words)” value is given as “significant inhibition effect”.
